Assay results: PMC4851326, “Pharmacologic Comparison of Clinical Neutral Endopeptidase Inhibitors in a Rat Model of Acute Secretory Diarrhea” (The Journal of Pharmacology and Experimental Therapeutics, 2016)

Experiments:
[1] = target: T1, NEP (Homo sapiens, UniProt P08473); experiment: Purified peptidase assay, NEP; format: biochemical
T1 construct: purchased R&D Systems (Minneapolis, MN)
Description: Purified recombinant human enzymes were purchased from R&D Systems (Minneapolis, MN). […] Each substrate was diluted to 100 μM in the assay buffer recommended for each enzyme by the supplier. […] To these, 5 μl of diluted enzyme was added, followed by 10 μl of the quenched peptide substrate. The plates were incubated at 37°C until at least 10% substrate turnover or 5 μM product had formed. Fluorescence was measured using a Tecan Safire II (Excitation 320 nm/Emission 420 nm). Each plate included a standard curve of reaction product and positive (no enzyme) and negative (dimethyl sulfoxide vehicle) controls. Dose-response data were plotted and inhibition values (IC50) determined by linear regression analysis using GraphPad Prism (GraphPad Software, La Jolla, CA).

[2] = tested on: castor oil–induced diarrhea; experiment: Castor oil–induced diarrhea model; format: in vivo, rat
Description: Experiments were performed with 6-to-7-week-old male Wistar rats obtained from Charles River Laboratories (Wilmington, MA). All animals were housed in Saint Louis University facilities under controlled conditions of temperature, humidity, and a 12-hour light/dark cycle. They were maintained on standard rodent chow with free access to water. Animal care and all procedures were performed in accordance with the National Institutes of Health Guide for the Care and Use of Laboratory Animals and approved by the university’s institutional animal care and use committee.
Animals were weighed and individually housed in metabolic cages containing white paper underneath to collect feces. Test compounds or vehicles were administered by oral gavage (5 ml/kg), and then at indicated times, 10 ml/kg body weight of 100% castor oil was administered by oral gavage to induce diarrhea. Animals had access to food within 5 minutes. Stool weight was recorded starting 15 minutes after castor oil administration and repeated every 15 minutes up to 4 hours. […] After 4 hours, animals were euthanized with CO2, and blood and tissues were collected for analyses.

[3] = target: T2, NEP (Rattus norvegicus, UniProt P07861); experiment: NEP enzyme activity in tissues after oral treatment; format: in vivo; conditions: normal rats; for Relative NEP inhibition, duodenum / Relative NEP inhibition, jejunum / Relative NEP inhibition, kidney / Relative NEP inhibition, lung: vs vehicle
T2 construct: NEP enzyme activity was measured in tissue homogenates; from tissue; host or cells: Wistar rat kidney, lung, duodenum, jejunum homogenates
T2 sequence (P07861 1-750): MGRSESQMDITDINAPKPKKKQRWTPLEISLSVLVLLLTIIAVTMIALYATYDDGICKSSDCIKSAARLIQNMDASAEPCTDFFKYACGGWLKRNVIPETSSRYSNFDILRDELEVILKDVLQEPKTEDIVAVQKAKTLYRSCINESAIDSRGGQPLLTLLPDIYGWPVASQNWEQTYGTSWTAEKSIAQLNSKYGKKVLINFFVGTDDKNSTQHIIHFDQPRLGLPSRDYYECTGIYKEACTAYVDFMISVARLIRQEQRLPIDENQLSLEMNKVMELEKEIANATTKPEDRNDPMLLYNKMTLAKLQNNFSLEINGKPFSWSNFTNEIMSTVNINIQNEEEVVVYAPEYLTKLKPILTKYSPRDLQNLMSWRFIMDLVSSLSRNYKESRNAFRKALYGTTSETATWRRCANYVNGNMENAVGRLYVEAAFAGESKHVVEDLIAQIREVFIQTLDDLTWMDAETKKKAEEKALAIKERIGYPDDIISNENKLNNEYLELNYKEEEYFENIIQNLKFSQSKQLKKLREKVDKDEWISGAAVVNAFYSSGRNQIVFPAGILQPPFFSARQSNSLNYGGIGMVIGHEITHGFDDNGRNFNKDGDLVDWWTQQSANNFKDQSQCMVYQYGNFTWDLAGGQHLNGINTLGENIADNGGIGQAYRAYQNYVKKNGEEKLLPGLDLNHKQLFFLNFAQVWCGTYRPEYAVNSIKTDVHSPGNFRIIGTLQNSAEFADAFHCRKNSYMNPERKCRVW
Description: Four or five 2-mm Zirconia beads (Biospec, Bartlesville, OK) were added to fresh weighed tissue specimens (50–250 mg). Assay buffer consisting of 50 mM Tris-HCl (pH 7.4), 200 mM NaCl, and 0.05% TritonX-100 was added (4 μl/mg), and the sample was homogenized for 1 minute using a bead beater (Biospec). Stored frozen homogenates were thawed at room temperature and centrifuged 10 minutes at 18,000g, and the protein concentration was determined for each supernatant. […] NEP substrate 2Abz-dArg-Gly-Leu-C2-Dnp (American Peptide, Sunnyvale, CA) was prepared at 1 mM in 20% acetonitrile/water and diluted to 100 μM in assay buffer, and 10 μl was dispensed to homogenate-containing wells. […] Kinetic data were plotted to determine the rate of product formation by linear regression with interpolation against a standard curve, and the rate was normalized to protein concentration.

[4] = tested on: intestinal motility; experiment: Charcoal meal model of intestinal motility; format: in vivo, rat; conditions: 30 minutes before charcoal meal, distance traveled in 20 minutes
Description: Rats were fasted for 18 hours before the experiment, with free access to water. Animals were weighed, and vehicle or compounds were administered by oral gavage. […] After 30 minutes, each animal received standard charcoal meal (10% suspension of activated charcoal in 5% gum arabic) by oral gavage (5 ml/kg). Animals were given access to food within 1 minute and sacrificed 20 minutes after the charcoal meal. The intestines were carefully removed. Motility was calculated as the measured distance traveled by the charcoal as a percentage of total length from pyloric sphincter to ileocecal junction.

[5] = 1 h after single oral dose (Race 100, Candox 150, Sac 100, UK 100 mg/kg)
[6] = 5 h after single oral dose (Race 100, Candox 150, Sac 100, UK 100 mg/kg)

T1 sequence (P08473 whole entry): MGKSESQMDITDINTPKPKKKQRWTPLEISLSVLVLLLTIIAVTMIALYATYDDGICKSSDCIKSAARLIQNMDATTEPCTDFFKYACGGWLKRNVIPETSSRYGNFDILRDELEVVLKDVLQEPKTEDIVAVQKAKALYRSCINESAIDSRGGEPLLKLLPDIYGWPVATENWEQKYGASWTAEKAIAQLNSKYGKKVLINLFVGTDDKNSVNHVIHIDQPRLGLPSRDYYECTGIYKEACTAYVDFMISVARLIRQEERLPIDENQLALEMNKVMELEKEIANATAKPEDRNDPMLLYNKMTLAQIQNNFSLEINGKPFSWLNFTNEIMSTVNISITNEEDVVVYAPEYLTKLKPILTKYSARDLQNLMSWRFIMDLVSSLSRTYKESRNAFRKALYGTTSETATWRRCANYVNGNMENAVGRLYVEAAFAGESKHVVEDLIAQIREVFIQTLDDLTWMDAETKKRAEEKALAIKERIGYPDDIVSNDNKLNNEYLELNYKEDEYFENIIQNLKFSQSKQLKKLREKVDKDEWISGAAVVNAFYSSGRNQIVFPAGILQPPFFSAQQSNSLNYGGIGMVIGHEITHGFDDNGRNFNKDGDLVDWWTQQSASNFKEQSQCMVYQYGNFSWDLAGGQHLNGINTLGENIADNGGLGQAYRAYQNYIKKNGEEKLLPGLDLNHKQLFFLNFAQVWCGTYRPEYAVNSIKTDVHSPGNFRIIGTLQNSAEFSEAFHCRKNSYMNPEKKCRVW

`COCCOC[C@H](CC1(C(=O)N[C@H]2CC[C@@H](C(=O)O)CC2)CCCC1)C(=O)O` [Candoxatrilat, candoxatrilat] was tested, and the IC50 ([1]; recombinant purified human enzyme, for prodrugs the active form was tested) was < 100 nM and the “NEP selectivity over the other peptidases” value ([1]; versus panel of ACE, ECE-1, ECE-2, IDE, APN, PSA) was > 60 fold.
In the case of `CC(=O)SCC(Cc1ccccc1)C(=O)NCC(=O)OCc1ccccc1` (centres unmarked) [Racecadotril], the “Stool output, 150 or 240 minutes predosing” value ([2]; 100 mg/kg oral 150 or 240 minutes before castor oil (Fig. 4B, 4C)) is reported as “Neither drug was effective”, the Incidence of diarrhea ([2]; dose-response study (Fig. 2A), 30 minutes before castor oil, sacubitril at highest tested dose, racecadotril 100 mg/kg) is reported as 100% and the “Cumulative stool output over 4 hours” value ([2]; single oral dose 30 minutes before castor oil, fasted rats, vs vehicle (Fig. 1)) is reported as “significantly reduced”. For the same compound, the “Stool output, dose-response studies” value ([2]; single oral treatment with varying doses (racecadotril 100 mg/kg) 30 minutes before castor oil (Fig. 2A, 2C)) was “significantly reduced stool output”, the “Relative NEP inhibition, duodenum” value [3, 5] was 98% and the “Relative NEP inhibition, jejunum” value [3, 5] was 90%. The “Relative NEP inhibition, kidney” value [3, 5] was 56%, the “Relative NEP inhibition, lung” value [3, 5] was 75% and the “NEP enzyme activity in duodenum and jejunum” value ([3]; 1 hour after single oral 100 mg/kg dose (Fig. 3A, B)) was “barely detectable levels”. For the same compound, the “Relative NEP inhibition, duodenum” value [3, 6] was 85%, the “Relative NEP inhibition, jejunum” value [3, 6] was 32% and the “Relative NEP inhibition, kidney” value [3, 6] was 39%. The “Relative NEP inhibition, lung” value [3, 6] was 59%, the “NEP inhibition in lung and kidney tissue after 24 hours” value ([3]; 24 hours after single oral 100 mg/kg dose (Fig. 3C, D)) was “returned to normal” and the “Effect on intestinal transit (charcoal meal test)” value (“Effect on intestinal transit” for short) ([4]; oral, dose not given (Fig. 5)) was “no effect”.
In the case of `CCOC(=O)[C@H](C)C[C@@H](Cc1ccc(-c2ccccc2)cc1)NC(=O)CCC(=O)O` [Sacubitril, 4-(((2S,4R)-1-([1,1′-biphenyl]-4-yl)-5-ethoxy-4-methyl-5-oxopentan-2-yl)amino)-4-oxobutanoic acid], the “Effect on intestinal transit” value ([4]; 30 mg/kg oral) is reported as “no effect” and the “Effect on intestinal transit” value ([4]; 100 mg/kg oral) is reported as “significant but very modest effect”.
For `CN(C)C(=O)C(CCN1CCC(O)(c2ccc(Cl)cc2)CC1)(c1ccccc1)c1ccccc1` [loperamide], the “Effect on intestinal transit” value ([4]; oral, dose not given (Fig. 5)) was “greatly slowed transit”.
